Measurements: patent publication US12390472B2 (SUZHOU SINOVENT PHARMACEUTICALS CO., LTD., priority 2018, dated 2025)
Like-named read-outs stand apart in the source and are kept apart here.

Legend:
[1] = molecular target: EZH2 enzyme complex (Homo sapiens (Human), UniProt Q15910); experiment: Test on EZH2 inhibitory activity (TR-FRET); assay type: biochemical; settings: EZH2 enzyme complex 25 ng/uL, histone H3 peptide 4 uM, SAM 2 uM, 300 min; read-out: IC50 of EZH2 inhibition
[2] = test system: WSU-DLCL2; experiment: Methylated lysine of histone-H3 (H3K27Me3) detection by ELISA, WSU-DLCL2 cells; assay type: cell-based; settings: WSU-DLCL2, 7 days treatment, H3K27Me3 normalized to total histone-3, read-out: IC50 of cell methylation, WSU-DLCL2
Summary of the method: (§1)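 Cells were treated 7 days with compound (4-fold dilutions, 20 uM-0.009 nM), then lysed hypotonically with NaCl adjusted to ~100 mM. Lysate-coated plates were probed by ELISA for H3K27Me3 and total H3 (TMB, A450). Methylation signal was normalised to total H3 before curve fitting.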

[3] = test system: Pfeiffer; experiment: Methylated lysine of histone-H3 (H3K27Me3) detection by ELISA, Pfeiffer cells; assay type: cell-based, human; settings: 7 days treatment, H3K27Me3 normalized to total histone-3, read-out: IC50 of cell methylation, Pfeiffer
Summary of the method: as §1

[4] = In vivo pharmacokinetic properties in mice; design: species or system mouse; settings: male ICR mice; for F: intragastric 250 mg/kg vs intravenous 5 mg/kg; for CL / AUC(0-inf) / Cmax / Tmax / half-life: single intravenous 5 mg/kg and intragastric 250 mg/kg study; for AUC(0-inf) / Cmax / Tmax / half-life: mouse, plasma; for AUC(0-inf) / Cmax / Tmax: oral; for Cmax: read-out: Cmax; for Tmax: read-out: Tmax
Description: Male ICR mice were divided into different groups with 3 mice in each group, and single intravenous injection and single intragastric administration were conducted respectively. The compounds were formulated with 10% DMSO/90% (20% Captisol) to reach an appropriate concentration and then administered intravenously at 5 mg/kg. The compounds were formulated with 0.5% CMC-Na/0.1% Tween 80 (pH=3-4) to reach an appropriate concentration and then administered intragastrically at 250 mg/kg. Blood was taken at 5 min, 15 min, 30 min, 1 h, 2 h, 4 h, 6 h, 8 h and 24 h after administration, and then subjected to EDTA-K2 anticoagulation. The concentration of the compound in the plasma was quantitatively detected by an LC-MS/MS method.

EZH2 enzyme complex, sequence (Q15910 whole entry): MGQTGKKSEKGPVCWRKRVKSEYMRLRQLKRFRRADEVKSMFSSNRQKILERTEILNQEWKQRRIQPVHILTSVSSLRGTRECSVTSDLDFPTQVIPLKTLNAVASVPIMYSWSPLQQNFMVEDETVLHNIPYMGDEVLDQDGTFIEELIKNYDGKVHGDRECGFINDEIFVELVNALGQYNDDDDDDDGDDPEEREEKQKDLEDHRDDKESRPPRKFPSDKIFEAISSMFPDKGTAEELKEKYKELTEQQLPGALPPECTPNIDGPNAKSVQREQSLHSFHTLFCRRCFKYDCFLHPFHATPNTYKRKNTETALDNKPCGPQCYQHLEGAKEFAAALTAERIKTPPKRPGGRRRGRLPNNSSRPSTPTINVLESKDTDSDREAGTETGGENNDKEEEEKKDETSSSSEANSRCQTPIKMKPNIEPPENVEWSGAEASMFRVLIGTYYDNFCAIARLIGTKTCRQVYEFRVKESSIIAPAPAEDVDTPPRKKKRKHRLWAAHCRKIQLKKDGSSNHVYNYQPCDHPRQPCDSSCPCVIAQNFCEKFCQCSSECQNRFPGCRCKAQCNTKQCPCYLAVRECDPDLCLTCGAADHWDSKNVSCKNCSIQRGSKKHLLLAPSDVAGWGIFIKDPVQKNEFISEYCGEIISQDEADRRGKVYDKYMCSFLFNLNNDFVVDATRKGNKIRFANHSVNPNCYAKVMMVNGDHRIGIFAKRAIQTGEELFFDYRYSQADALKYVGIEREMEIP
EZH2 enzyme complex, sequence (O75530 whole entry partner): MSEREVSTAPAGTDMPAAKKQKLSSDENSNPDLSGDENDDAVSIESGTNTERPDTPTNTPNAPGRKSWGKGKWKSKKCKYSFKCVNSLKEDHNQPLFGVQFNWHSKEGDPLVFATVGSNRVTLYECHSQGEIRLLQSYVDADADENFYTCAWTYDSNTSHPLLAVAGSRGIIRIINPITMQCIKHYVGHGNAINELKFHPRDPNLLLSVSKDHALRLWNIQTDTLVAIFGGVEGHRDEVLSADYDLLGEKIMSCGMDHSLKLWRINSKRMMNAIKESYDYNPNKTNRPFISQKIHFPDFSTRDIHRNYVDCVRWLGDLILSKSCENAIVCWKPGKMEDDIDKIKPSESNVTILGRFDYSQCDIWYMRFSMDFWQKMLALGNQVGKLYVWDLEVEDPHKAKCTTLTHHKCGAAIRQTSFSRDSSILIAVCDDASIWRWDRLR
EZH2 enzyme complex, sequence (Q15022 whole entry partner): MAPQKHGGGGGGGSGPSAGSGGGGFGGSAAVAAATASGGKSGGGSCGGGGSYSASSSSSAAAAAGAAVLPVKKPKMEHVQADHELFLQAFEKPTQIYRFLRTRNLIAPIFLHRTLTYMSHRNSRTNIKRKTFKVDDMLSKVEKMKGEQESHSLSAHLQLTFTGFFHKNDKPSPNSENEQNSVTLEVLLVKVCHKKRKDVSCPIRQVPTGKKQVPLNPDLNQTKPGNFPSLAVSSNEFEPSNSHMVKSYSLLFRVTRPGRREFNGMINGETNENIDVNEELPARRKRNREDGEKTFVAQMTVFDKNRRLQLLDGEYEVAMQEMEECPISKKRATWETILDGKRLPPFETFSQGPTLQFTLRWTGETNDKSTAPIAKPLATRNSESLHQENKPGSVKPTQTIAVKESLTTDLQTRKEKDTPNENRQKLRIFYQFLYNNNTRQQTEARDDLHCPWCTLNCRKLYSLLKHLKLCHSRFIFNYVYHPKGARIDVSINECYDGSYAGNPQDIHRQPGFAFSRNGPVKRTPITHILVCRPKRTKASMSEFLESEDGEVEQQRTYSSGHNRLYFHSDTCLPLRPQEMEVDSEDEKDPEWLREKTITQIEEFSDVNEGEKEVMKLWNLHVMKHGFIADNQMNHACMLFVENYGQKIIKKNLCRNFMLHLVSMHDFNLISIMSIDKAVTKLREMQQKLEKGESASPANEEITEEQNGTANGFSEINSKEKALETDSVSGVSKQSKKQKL

| SMILES | IC50 [1] | IC50 ([2]; Homo sapiens, WSUDLCL2, 168 h) | IC50 ([3]; Homo sapiens, 168 h) | F [4] | CL [4] | AUC(0-inf) [4] | Cmax [4] | Tmax [4] | half-life [4] | IC50 [2] | IC50 [3] |
| --- | --- | --- | --- | --- | --- | --- | --- | --- | --- | --- | --- |
| CCN(c1cc(O[C@H]2C[C@H](N3CCOCC3)C2)cc(C(=O)NCc2c(C)cc(C)[nH]c2=O)c1C)C1CCOCC1 [Example 4, N-((4,6-dimethyl-2-oxo-1,2-dihydropyridin-3-yl)methyl)-3-(ethyl(tetrahydro-2H-pyran-4-yl)amino)-2-methyl-5-(trans-3-morpholinylcyclobutoxy)benzamide] | 10 to 100 nM | 50 to 500 nM | < 50 nM | 25.1% | 60.6 ± 19.36 mL/min/lg | 18800 ± 487 ng·h/mL | 16500 ± 4630 ng/mL | 0.33 ± 0.14 h | 3.13 ± 3.1 h | – | – |
| CCN(c1cc(O[C@H]2C[C@H](N3C[C@@H](C)O[C@@H](C)C3)C2)cc(C(=O)NCc2c(C)cc(C)[nH]c2=O)c1C)C1CC2CCC(C1)O2 (stereo partly drawn) [Example 47, 3-((8-oxabicyclo[3.2.1]octan-3-yl)(ethyl)amino)-N-((4,6-dimethyl-2-oxo-1,2-dihydropyridin-3-yl)methyl)-5-(trans-3-(cis-2,6-dimethylmorpholinyl)cyclobutoxy)-2-methylbenzamide] | 10 to 100 nM | 50 to 500 nM | 50 to 500 nM | 118.1% | 103 ± 11.9 mL/min/lg | 48000 ng·h/mL | 19600 ± 8050 ng/mL | 0.67 ± 0.29 h | 3.1 ± 1.04 h | – | – |
| CCN(c1cc(O[C@H]2C[C@H](N3CCC(C)CC3)C2)cc(C(=O)NCc2c(C)cc(C)[nH]c2=O)c1Cl)C1CCOCC1 [Example 59, 2-chloro-N-((4,6-dimethyl-2-oxo-1,2-dihydropyridin-3-yl)methyl)-3-(ethyl(tetrahydro-2H-pyran-4-yl)amino)-5-(trans-3-(4-methylpiperidin-1-yl)cyclobutoxy)benzamide] | < 10 nM | < 50 nM | 50 to 500 nM | 60.5% | 59.1 ± 6.95 mL/min/lg | 43000 ng·h/mL | 16600 ng/mL | 0.8 ± 0.27 h | 6.2 ± 3.83 h | – | – |
| CCN(c1cc(C2CC2CO)cc(C(=O)NCc2c(C)cc(C)[nH]c2=O)c1C)C1CCOCC1 (stereo not drawn) [Example 71, N-((4,6-dimethyl-2-oxo-1,2-dihydropyridin-3-yl)methyl)-3-(ethyl(tetrahydro-2H-pyran-4-yl)amino)-5-(2-(hydroxymethyl)cyclopropyl)-2-methylbenzamide] | 10 to 100 nM | 50 to 500 nM | < 50 nM | – | – | – | – | – | – | – | – |
| CCN(c1cc(C2CC2CN2CCOCC2)cc(C(=O)NCc2c(C)cc(C)[nH]c2=O)c1C)C1CCOCC1 (stereo not drawn) [Example 72, N-((4,6-dimethyl-2-oxo-1,2-dihydropyridin-3-yl)methyl)-3-(ethyl(tetrahydro-2H-pyran-4-yl)amino)-2-methyl-5-(2-(morpholinylmethyl)cyclopropyl)benzamide] | 10 to 100 nM | – | – | – | – | – | – | – | – | 50 to 500 nM | < 50 nM |
| CCN(c1cc(C2CC2CN2CCNCC2)cc(C(=O)NCc2c(C)cc(C)[nH]c2=O)c1C)C1CCOCC1 (stereo not drawn) [Example 73, N-((4,6-dimethyl-2-oxo-1,2-dihydropyridin-3-yl)methyl)-3-(ethyl(tetrahydro-2H-pyran-4-yl)amino)-2-methyl-5-(2-(piperazin-1-ylmethyl)cyclopropyl)benzamide] | 10 to 100 nM | 50 to 500 nM | 50 to 500 nM | – | – | – | – | – | – | – | – |
| CCN(c1cc(C2CC2CN2CCN(C)CC2)cc(C(=O)NCc2c(C)cc(C)[nH]c2=O)c1C)C1CCOCC1 (stereo not drawn) [Example 74, N-((4,6-dimethyl-2-oxo-1,2-dihydropyridin-3-yl)methyl)-3-(ethyl(tetrahydro-2H-pyran-4-yl)amino)-2-methyl-5-(2-((4-methylpiperazin-1-yl)methyl)cyclopropyl)benzamide] | 10 to 100 nM | 50 to 500 nM | < 50 nM | – | – | – | – | – | – | – | – |
| CCN(c1cc(C2CC2CN2C[C@@H](C)O[C@@H](C)C2)cc(C(=O)NCc2c(C)cc(C)[nH]c2=O)c1C)C1CCOCC1 (stereo partly drawn) [Example 75, N-((4,6-dimethyl-2-oxo-1,2-dihydropyridin-3-yl)methyl)-5-(2-((cis-2,6-dimethylmorpholinyl)methyl)cyclopropyl)-3-(ethyl(tetrahydro-2H-pyran-4-yl)amino)-2-methylbenzamide] | 10 to 100 nM | > 1000 nM | < 50 nM | – | – | – | – | – | – | – | – |
| CCN(c1cc(C2CC2CN2CCN(CC(C)(C)C)CC2)cc(C(=O)NCc2c(C)cc(C)[nH]c2=O)c1C)C1CCOCC1 (stereo not drawn) [Example 76, N-((4,6-dimethyl-2-oxo-1,2-dihydropyridin-3-yl)methyl)-3-(ethyl(tetrahydro-2H-pyran-4-yl)amino)-2-methyl-5-(2-((4-neopentylpiperazin-1-yl)methyl)cyclopropyl)benzamide] | 10 to 100 nM | 50 to 500 nM | < 50 nM | – | – | – | – | – | – | – | – |
| CCN(c1cc(C2CC2CN2CCCCC2)cc(C(=O)NCc2c(C)cc(C)[nH]c2=O)c1C)C1CCOCC1 (stereo not drawn) [Example 77, N-((4,6-dimethyl-2-oxo-1,2-dihydropyridin-3-yl)methyl)-3-(ethyl(tetrahydro-2H-pyran-4-yl)amino)-2-methyl-5-(2-(piperidin-1-ylmethyl)cyclopropyl)benzamide] | 10 to 100 nM | 50 to 500 nM | < 50 nM | – | – | – | – | – | – | – | – |
| CCN(c1cc(C2CC2CN2CCC(F)(F)CC2)cc(C(=O)NCc2c(C)cc(C)[nH]c2=O)c1C)C1CCOCC1 (stereo not drawn) [Example 78, 5-(2-((4,4-difluoropiperidin-1-yl)methyl)cyclopropyl)-N-((4,6-dimethyl-2-oxo-1,2-dihydropyridin-3-yl)methyl)-3-(ethyl(tetrahydro-2H-pyran-4-yl)amino)-2-methylbenzamide] | 10 to 100 nM | 50 to 500 nM | < 50 nM | – | – | – | – | – | – | – | – |
| CCN(c1cc(C2CC2CN2CCC(F)CC2)cc(C(=O)NCc2c(C)cc(C)[nH]c2=O)c1C)C1CCOCC1 (stereo not drawn) [Example 79, N-((4,6-dimethyl-2-oxo-1,2-dihydropyridin-3-yl)methyl)-3-(ethyl(tetrahydro-2H-pyran-4-yl)amino)-5-(2-((4-fluoropiperidin-1-yl)methyl)cyclopropyl)-2-methylbenzamide] | 10 to 100 nM | 50 to 500 nM | < 50 nM | – | – | – | – | – | – | – | – |
